Test results reported in the supplement of paper PMC9663587.

Legend:
[1] = compound: T1, CCOc1cc2ncc(C#N)c(Nc3ccc(OCc4ccccn4)c(Cl)c3)c2cc1NC(=O)/C=C/CN(C)C [Neratinib/HKI272]; assay: increase in dead-cell fraction, 72 h; higher = more death;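 also: breast cancer cell lines in 384-well plates, stained with Hoechst plus LIVE/DEAD far red dye and imaged, cells above an LDR intensity threshold counted dead, Hoechst-negative corpses included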
[2] = compound: CCc1cnn2c(NCc3ccc[n+]([O-])c3)cc(N3CCCC[C@H]3CCO)nc12; assay: as above
[3] = compound: CN(C)C(=O)c1cc2cnc(Nc3ccc(N4CCNCC4)cn3)nc2n1C1CCCC1 [LEE011/Ribociclib]; assay: as above
[4] = compound: CCN1CCN(Cc2ccc(Nc3ncc(F)c(-c4cc(F)c5nc(C)n(C(C)C)c5c4)n3)nc2)CC1; assay: as above
[5] = compound: CC(=O)c1c(C)c2cnc(Nc3ccc(N4CCNCC4)cn3)nc2n(C2CCCC2)c1=O; assay: as above
[6] = compound: CN1CC[C@H](c2c(O)cc(O)c3c(=O)cc(-c4ccccc4Cl)oc23)[C@H](O)C1 [Flavopiridol]; assay: as above
[7] = compound: CN(C)C/C=C/C(=O)Nc1ccc(C(=O)N2CCC[C@@H](Nc3ncc(Cl)c(-c4c[nH]c5ccccc45)n3)C2)cc1 [THZ531]; assay: as above
[8] = compound: T2, CN(C)C/C=C/C(=O)Nc1ccc(C(=O)Nc2cccc(Nc3ncc(Cl)c(-c4c[nH]c5ccccc45)n3)c2)cc1 [THZ1]; assay: as above
[9] = compound: C=CC(=O)Nc1ccc(C(=O)Nc2[nH]nc3c2CN(C(=O)N[C@H](CN(C)C)c2ccccc2)C3(C)C)cc1 [YKL-5-124]; assay: as above
[10] = compound: CC(=O)c1c(C)c2cnc(Nc3ccc(N4CCN(CCOCCOCCOCCNC(=O)COc5cccc6c5C(=O)N(C5CCC(=O)NC5=O)C6=O)CC4)cn3)nc2n(C2CCCC2)c1=O [BSJ-03-123]; assay: as above
[11] = compound: T1, Neratinib/HKI272; assay: GR value, 72 h; higher = faster growth (1 = untreated, <0 = killing);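 also: breast cancer and non-malignant breast epithelial lines, nine half-log doses, viable cells counted by Hoechst and LIVE/DEAD dye imaging versus time-zero plates and DMSO controls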
[12] = compound: T2, THZ1; assay: as above

T47D
increase in dead-cell fraction ([1]; 0.0003162 µM): -0.0033
increase in dead-cell fraction ([1]; 0.001 µM): 0.0054
increase in dead-cell fraction ([1]; 0.003162 µM): 0.0022
increase in dead-cell fraction ([1]; 0.01 µM): 0.0045
increase in dead-cell fraction ([1]; 0.03162 µM): 0.0043
increase in dead-cell fraction ([1]; 0.1 µM): 0.0001
increase in dead-cell fraction ([1]; 0.3162 µM): 0.0101
increase in dead-cell fraction ([1]; 1 µM): 0.0084
increase in dead-cell fraction ([1]; 3.162 µM): 0.0225
increase in dead-cell fraction ([2]; 0.0001 µM): -0.0001
increase in dead-cell fraction ([2]; 0.0003162 µM): 0.0027
increase in dead-cell fraction ([2]; 0.001 µM): -0.0018
increase in dead-cell fraction ([2]; 0.003162 µM): -0.0021
increase in dead-cell fraction ([2]; 0.01 µM): 0.0073
increase in dead-cell fraction ([2]; 0.03162 µM): 0.0576
increase in dead-cell fraction ([2]; 0.1 µM): 0.106
increase in dead-cell fraction ([2]; 0.3162 µM): 0.138
increase in dead-cell fraction ([2]; 1 µM): 0.127
increase in dead-cell fraction ([3]; 0.001 µM): 0.0085
increase in dead-cell fraction ([3]; 0.003162 µM): 0.0069
increase in dead-cell fraction ([3]; 0.01 µM): 0.0061
increase in dead-cell fraction ([3]; 0.03162 µM): 0.0139
increase in dead-cell fraction ([3]; 0.1 µM): 0.0374
increase in dead-cell fraction ([3]; 0.3162 µM): 0.0392
increase in dead-cell fraction ([3]; 1 µM): 0.0267
increase in dead-cell fraction ([3]; 3.162 µM): 0.0405
increase in dead-cell fraction ([3]; 10 µM): 0.0242
increase in dead-cell fraction ([4]; 0.001 µM): -0.0007
increase in dead-cell fraction ([4]; 0.003162 µM): 0.0004
increase in dead-cell fraction ([4]; 0.01 µM): 0.0119
increase in dead-cell fraction ([4]; 0.03162 µM): 0.0119
increase in dead-cell fraction ([4]; 0.1 µM): 0.0081
increase in dead-cell fraction ([4]; 0.3162 µM): 0.0178
increase in dead-cell fraction ([4]; 1 µM): 0.0167
increase in dead-cell fraction ([4]; 3.162 µM): 0.0642
increase in dead-cell fraction ([4]; 10 µM): 0.104
increase in dead-cell fraction ([5]; 0.0003162 µM): 0.0016
increase in dead-cell fraction ([5]; 0.001 µM): -0.001
increase in dead-cell fraction ([5]; 0.003162 µM): 0.0022
increase in dead-cell fraction ([5]; 0.01 µM): 0.0006
increase in dead-cell fraction ([5]; 0.03162 µM): 0.0078
increase in dead-cell fraction ([5]; 0.1 µM): 0.0116
increase in dead-cell fraction ([5]; 0.3162 µM): 0.0158
increase in dead-cell fraction ([5]; 1 µM): 0.0154
increase in dead-cell fraction ([5]; 3.162 µM): 0.0097
increase in dead-cell fraction ([6]; 0.0001 µM): 0.0101
increase in dead-cell fraction ([6]; 0.0003162 µM): -0.0037
increase in dead-cell fraction ([6]; 0.001 µM): 0.0027
increase in dead-cell fraction ([6]; 0.003162 µM): 0.0005
increase in dead-cell fraction ([6]; 0.01 µM): 0.0011
increase in dead-cell fraction ([6]; 0.03162 µM): -0.0028
increase in dead-cell fraction ([6]; 0.1 µM): 0.0027
increase in dead-cell fraction ([6]; 0.3162 µM): 0.0159
increase in dead-cell fraction ([6]; 1 µM): 0.0323
increase in dead-cell fraction ([7]; 0.0001 µM): -0.0029
increase in dead-cell fraction ([7]; 0.0003162 µM): 0.0085
increase in dead-cell fraction ([7]; 0.001 µM): -0.0033
increase in dead-cell fraction ([7]; 0.003162 µM): 0.0028
increase in dead-cell fraction ([7]; 0.01 µM): -0.0045
increase in dead-cell fraction ([7]; 0.03162 µM): 0.0014
increase in dead-cell fraction ([7]; 0.1 µM): 0.01
increase in dead-cell fraction ([7]; 0.3162 µM): 0.035
increase in dead-cell fraction ([7]; 1 µM): 0.0357
increase in dead-cell fraction ([8]; 0.0001 µM): -0.0018
increase in dead-cell fraction ([8]; 0.0003162 µM): 0.0029
increase in dead-cell fraction ([8]; 0.001 µM): 0.0039
increase in dead-cell fraction ([8]; 0.003162 µM): 0.005
increase in dead-cell fraction ([8]; 0.01 µM): -0.0043
increase in dead-cell fraction ([8]; 0.03162 µM): 0.0328
increase in dead-cell fraction ([8]; 0.1 µM): 0.0197
increase in dead-cell fraction ([8]; 0.3162 µM): 0.0299
increase in dead-cell fraction ([8]; 1 µM): 0.0416
increase in dead-cell fraction ([9]; 0.001 µM): 0.0113
increase in dead-cell fraction ([9]; 0.003162 µM): 0.0129
increase in dead-cell fraction ([9]; 0.01 µM): 0.0177
increase in dead-cell fraction ([9]; 0.03162 µM): 0.0322
increase in dead-cell fraction ([9]; 0.1 µM): 0.0269
increase in dead-cell fraction ([9]; 0.3162 µM): 0.0156
increase in dead-cell fraction ([9]; 1 µM): 0.0308
increase in dead-cell fraction ([9]; 3.162 µM): 0.0206
increase in dead-cell fraction ([9]; 10 µM): 0.0574
increase in dead-cell fraction ([10]; 0.001 µM): 0.0097
increase in dead-cell fraction ([10]; 0.003162 µM): 0.0074
increase in dead-cell fraction ([10]; 0.01 µM): 0.0101
increase in dead-cell fraction ([10]; 0.03162 µM): 0.0084
increase in dead-cell fraction ([10]; 0.1 µM): 0.019
increase in dead-cell fraction ([10]; 0.3162 µM): 0.021
increase in dead-cell fraction ([10]; 1 µM): 0.0319
increase in dead-cell fraction ([10]; 3.162 µM): 0.022
increase in dead-cell fraction ([10]; 10 µM): 0.0281
GR value ([11]; 0.0003162 µM): 1.02 GR
GR value ([11]; 0.001 µM): 1.01 GR
GR value ([11]; 0.003162 µM): 0.94 GR
GR value ([11]; 0.01 µM): 0.899 GR
GR value ([11]; 0.03162 µM): 0.749 GR
GR value ([11]; 0.1 µM): 0.65 GR
GR value ([11]; 0.3162 µM): 0.584 GR
GR value ([11]; 1 µM): 0.382 GR
GR value ([11]; 3.162 µM): 0.215 GR
GR value ([12]; 0.0001 µM): 0.967 GR
GR value ([12]; 0.0003162 µM): 1.08 GR
GR value ([12]; 0.001 µM): 0.922 GR
GR value ([12]; 0.003162 µM): 1.02 GR
GR value ([12]; 0.01 µM): 0.841 GR
GR value ([12]; 0.03162 µM): 0.474 GR
GR value ([12]; 0.1 µM): -0.116 GR
GR value ([12]; 0.3162 µM): -0.142 GR
GR value ([12]; 1 µM): -0.269 GR
